# Results taken from patent US20220339260A1, “METHOD FOR PRODUCING INSULIN-PRODUCING CELL USING DIHYDROINDOLIZINONE DERIVATIVES” (TOKYO INSTITUTE OF TECHNOLOGY, priority 2019, published 2022).
# Test system: SK7 mouse ES cells
# Assay: Screening for β cell differentiation enhancer using SK7 mouse ES cells (Pdx1-GFP)
# Format: cell-based
# Method: The SK7 mouse ES cells were differentiated into β cells basically according to the previous report (Nakashima et al., 2015). Briefly, the cells were seeded at 5,000 cells per well in CellBIND 384-well (CORNING, 3770) cell culture plate or at 20,000 cells per well in a 96-well plate (Sigma) coated with 0.2% gelatin. Then, the cells were cultured in medium 1 from days 1 to 5. Medium 1 consisted of DMEM (high glucose) (Life Technologies, 11965092) supplemented with 0.1 mM NEAA (Gibco, 11140-50), 2 mM L-glutamine (Nacalai, 16948-04), 100 U/mL penicillin-streptomycin (Nacalai, 26252-94), 0.01 mM β-mercaptoethanol (Sigma), 1% insulin-transferrin-selenium supplement (ITS: Life Technologies, 41400045), 0.25% Albumax (Thermo Fisher, 11020021), and 10 ng/mL recombinant human activin-A (R&D Systems, 338-AC). Subsequently, the cells were cultured for 1 day in medium 2 which consisted of medium 1 supplemented with 10 μM retinoic acid (Stemgent, 04-0021). On day 6, the medium was replaced with medium 3, and the culture was continued until day 12 in order to induce differentiation into β cells. Medium 3 consisted of DMEM (low glucose) (Life Technologies, 11885084) supplemented with 0.1 mM NEAA, 2 mM L-glutamine, 100 U/mL penicillin-streptomycin, 0.1 mM β-mercaptoethanol, 1% ITS, 0.25% Albumax, and 3 mM nicotinamide (Sigma-Aldrich, N0636-500G). A test compound was added on day 8, and the cells were fixed in 4% paraformaldehyde for analysis using a high-content imager.
# A chemical library consisting of about 55,000 compounds was screened for a substance that induced β cell differentiation. […] Fluorescence images were quantified using Operetta high-content imaging system and Harmony image analysis software (PerkinElmer, Germany). The nuclei were identified by DAPI staining, and the positivity of antibody staining was determined from the fluorescence intensity of a cytoplasmic region surrounding the nucleus. The number of cells positive to both insulin and GFP was counted and normalized with the total number of DAPI-positive cells or a positive area. A median of quadruple data was calculated, and screening hits were defined as states in which the number of insulin- and GFP-positive cells was increased as compared with a DMSO control. […] The activity of the selected candidate compounds was further analyzed with Toe human iPS cell assay system in order to select a hit compound having effectiveness for both differentiation into mouse β cells and differentiation into human β cells. A compound was added as described above, and its effectiveness was evaluated from a mRNA expression level by q-PCR in triplet experiments. […]
smiles,measurement,setting,value
"O=C1CCC(C(=O)Nc2ncc(-c3ccccc3)s2)n2cccc21 (stereo not drawn) [Synthesis Example 1, 8-Oxo-N-(5-phenylthiazol-2-yl)-6,7-dihydro-5H-indolizine-5-carboxamide]",number of Pdx1-GFP+Ins+ double-positive cells,K-1 in combination with γ-secretase inhibitor LY411575,further enhanced increase
same,ratio of Pdx1-GFP+insulin+ double-positive cells,"dose-dependent, compound added on day 8",increased
same,expression of insulin 1,"dose-dependent, mRNA normalized with Hprt1",increased
